These results are taken from patent US20260069599A1, “INHIBITORS OF BROMODOMAIN-CONTAINING PROTEIN 4 AND PHOSPHOINOSITIDE 3-KINASE” (Board of Regents of the University of Nebraska, priority 2022, published 2026).

The target of one assay is T1, BRD2-BD2 (Homo sapiens, UniProt P25440).
T1 construct: polyhistidine (N, cleaved yes); made in house; host or cells: E. coli (T7 express)
The assay is described as follows: Protein Thermal Shift (PTS) assay on BRD2-BD2. The class given is binding. The note with it: 100 μM ligand, 20 μM BD protein; positive = Tm increase. The method, then:
The genes encoding human BRD2-BD1, BRD2-BD2, and BRD4-BD2 were codon-optimized for expression in E. coli. […] The sequence-confirmed plasmids were used to transform T7 express E coli. Large-scale cell cultures were grown in LB media containing […] carbenicillin and incubated with shaking at 37° C. until the OD600 nm reached 0.6. Then cultures were cooled to 16° C., and 1 mM isopropyl β-D-1-thiogalactopyranoside was added to induce the protein expression. After 20 hours of incubation, cells were harvested. The resulting cell pellet was resuspended in a lysis buffer containing 50 mM Tris pH 7.5, 200 mM NaCl, 0.5 mM imidazole, and 0.3 mM tris(2-carboxyethyl) phosphine (TECP). After the addition of DNase I and lysozyme, the cell suspension was incubated on ice for 30 minutes and lysed by sonication. The lysate was clarified by centrifugation at 12,000 rpm for 45 minutes. […]
Each reaction used 20 μM concentration of recombinant BD protein in a 50 mM Tris pH 7.5 buffer containing 100 mM NaCl, 0.3 mM tris(2-carboxyethyl) phosphine HCl, and 1% dimethyl sulfoxide. […] Evaluation of the derivative of the fluorescence signal employed the Applied Bioscience Protein Thermal Shift Software version 1.3 to determine the average melting temperature (Tm) for each sample and the standard deviation(s) of those Tm values.

Assay [1] deals with MB cells (DAOY and HD-MB03). The assay is described as follows: Colony formation (clonogenic) assay. The assay is classed as cell-based, human. The conditions noted are these: 48 hours treatment, 14-day incubation, both cell lines. The method, then:
Approximately 500 MB cells were seeded overnight in 6 well plates and treated with MDP5 at IC50 for the colony formation assay. After 48 hours of incubation, the media was replaced by fresh media and allowed cells to grow for 2 weeks. Then, cells were fixed into 10% formalin and stained with a 0.5% solution of crystal violet dye in 20% methanol. After taking pictures, the colonies were dissolved in 10% acetic acid solution to measure the optical density.
Colony formation ability, cell cycle analysis, and cell apoptosis assay were performed in MB cells in presence of drugs as described (Kumar et al. (2021) Biomaterials 278:121138). For the colony formation assay, after taking images, the colonies were dissolved in 10% acetic acid solution to measure the optical density (OD).

Another assay relates to MB cells. The assay is described as follows: RT-qPCR of target genes. The class given is cell-based, human. The conditions noted are these: RT-PCR. The method, then: Whole RNAs in cells after treatments were extracted using an RNA extraction kit (RNAeasy, Qiagen) to detect mRNA expression. cDNA templates were synthesized by reverse transcribing the RNA using a High-Capacity RNA-to-cDNA™ Kit (Thermo Fisher). The final RT-qPCR reaction mixture was used consisting of a total volume 10 μl containing […] SYBR Green master mix, 0.5 μl of each primer (10 μM) (Table 1), 2 μl of the cDNA template, and 3.5 μl RNase-free H2O. The relative expression level of the targeted gene was measured with Lightcycler 480 (Roche). The gene expression levels were calculated according to the 2^−ΔΔCq method using β-actin as the internal reference gene. Each assay was repeated≥3 times.
(Real-time PCR tracks product formation cycle by cycle.)

Assay [2] relates to DAOY and HD-MB03 spheroids. The assay is described as follows: Tumor spheroid live/dead assay. The assay is classed as cell-based, human. The conditions noted are these: 5.0 μM, 7 days. The method, then:
Tumor spheroids were formed using MB cells following the method described (Bhattarai, et al. (2021) J. Control. Release 329:585-597). For tumor spheroids assay, 1500 and 500 DAOY and HD-MB03 cells, respectively, were suspended in 100 μL media and seeded in ultra-low attachment (ULA) 96-well plate for a week and 50 μL of media was replaced by fresh media every third day and spheroid size was tracked under fluorescent microscope. […] After 7 days of the treatment period, spheroids were stained with Calcein AM (2 μM) and ethidium homodimer-1 (3 μM) (LIVE/DEAD™; L3224) to check the live/dead cells. Images were taken by confocal laser microscope (Zesis LSM 710) with 10× magnification at 40 μm depth.

A further assay deals with ONS-76 cells. The assay is described as follows: CD15+ tumor propagating cell population by FACS. The class given is cell-based. The note with it: 5.0 μM, 48 hours, vs control. The method, then: The tumor propagating cell population in ONS-76 cells was identified based on CD15+ staining by fluorescence-activated cell sorting (FACS) analysis. […] Then, cells were trypsinized and 1×10^6 cells stained with a 5 μL aliquot of APC-CD15 antibody (BioLegend; 301,908) and analyzed with flow cytometry (BD, LSR Fortessa).
(In general: Flow cytometry measures light scatter and fluorescence of single cells or particles in a stream.)

“Also recorded” adds a separate entry of the source.

T1 sequence (P25440 344-453 limits assumed): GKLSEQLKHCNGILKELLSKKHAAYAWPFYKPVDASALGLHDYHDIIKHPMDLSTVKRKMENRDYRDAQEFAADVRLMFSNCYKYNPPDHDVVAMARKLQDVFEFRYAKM

In the case of `O=c1cc(N2CCOCC2)oc2c(-c3ccc4c(c3)OCCO4)cccc12` [MDP5, 8-(2,3-dihydrobenzo [b][1,4]dioxin-6-yl)-2-morpholino-4H-chromen-4-one], at BRD2-BD2, the “change in BRD2-BD2 melting temperature (Tm)” value was 2.4 °C. Further, the colony formation result in assay [1] was “significant decrease in colony formation potential; also recorded: lower number of colonies in both cell lines; also recorded: significantly decreased the colony formation capacity”. The “BCL2 mRNA expression” value in the assay with MB cells (MB cells) was “significantly reduced”. The “cyclin D1 gene expression” value with MB cells (vs control) is on record as “decreased significantly”. In assay [2], the “cell viability of tumor spheroids” value is recorded as “significantly decreased”. The “size / formation of tumor spheroids” value in assay [2] (vs DMSO-treated control) is “decreased the tumor spheroid formation in both MB cells”. Also, in the assay on ONS-76 cells, the “percentage of CD15+ cell population” value is “declined as compared to control cells”.

`O=c1cc(N2CCOCC2)oc2c(-c3ccc4c(c3)OCCO4)csc12` [SF2523, reference compound]: the “change in BRD2-BD2 melting temperature (Tm)” value at BRD2-BD2 came to 6.3 °C. Further, in assay [2], the “cell viability of tumor spheroids” value was “significantly decreased”.
